Calls of active or inactive are those of the source. The rule behind the calls is not given here.
Legend:
[1] = molecular target: T1, Muscarinic acetylcholine receptor M1 (Homo sapiens, UniProt P11229); format: functional, cell-based, CHO
T1 sequence (P11229 whole entry): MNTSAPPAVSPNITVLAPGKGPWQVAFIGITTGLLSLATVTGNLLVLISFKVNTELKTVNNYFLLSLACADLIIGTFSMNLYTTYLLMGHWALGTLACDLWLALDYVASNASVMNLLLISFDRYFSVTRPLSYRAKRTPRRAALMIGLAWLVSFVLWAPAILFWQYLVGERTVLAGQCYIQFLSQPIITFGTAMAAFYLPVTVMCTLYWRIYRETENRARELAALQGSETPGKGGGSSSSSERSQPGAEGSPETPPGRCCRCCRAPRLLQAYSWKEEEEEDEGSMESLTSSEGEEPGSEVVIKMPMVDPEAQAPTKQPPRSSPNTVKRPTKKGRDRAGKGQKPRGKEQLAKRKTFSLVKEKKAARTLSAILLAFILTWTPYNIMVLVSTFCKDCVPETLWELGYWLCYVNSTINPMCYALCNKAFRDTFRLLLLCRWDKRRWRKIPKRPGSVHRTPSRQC

Cholinesterase = Cholinesterase (Homo sapiens, UniProt P06276)
Cholinesterase, sequence (P06276 whole entry): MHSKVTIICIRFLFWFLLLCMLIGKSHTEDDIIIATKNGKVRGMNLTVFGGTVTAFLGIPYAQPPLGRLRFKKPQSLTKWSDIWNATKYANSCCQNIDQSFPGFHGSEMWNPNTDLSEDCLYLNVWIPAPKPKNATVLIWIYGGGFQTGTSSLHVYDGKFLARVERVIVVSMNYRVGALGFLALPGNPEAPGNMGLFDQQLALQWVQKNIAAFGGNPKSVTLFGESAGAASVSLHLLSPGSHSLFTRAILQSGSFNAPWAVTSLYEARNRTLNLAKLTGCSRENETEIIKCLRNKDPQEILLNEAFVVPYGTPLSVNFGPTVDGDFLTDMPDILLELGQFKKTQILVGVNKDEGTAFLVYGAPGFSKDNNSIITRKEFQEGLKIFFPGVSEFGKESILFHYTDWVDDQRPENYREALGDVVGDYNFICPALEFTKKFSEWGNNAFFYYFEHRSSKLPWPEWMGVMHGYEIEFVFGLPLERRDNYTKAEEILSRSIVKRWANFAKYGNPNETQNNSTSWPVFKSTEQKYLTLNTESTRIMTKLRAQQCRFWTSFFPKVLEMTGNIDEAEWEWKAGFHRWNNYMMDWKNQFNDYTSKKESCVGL
Description: Inhibition of human plasmatic BuChE using butyrylthiocholine iodide as substrate preincubated for 5 mins followed by substrate addition measured at 2 mins time interval by Ellman's method

Acetylcholinesterase [2] = molecular target: T2, Acetylcholinesterase (Homo sapiens, UniProt P22303)
T2 sequence (P22303 whole entry): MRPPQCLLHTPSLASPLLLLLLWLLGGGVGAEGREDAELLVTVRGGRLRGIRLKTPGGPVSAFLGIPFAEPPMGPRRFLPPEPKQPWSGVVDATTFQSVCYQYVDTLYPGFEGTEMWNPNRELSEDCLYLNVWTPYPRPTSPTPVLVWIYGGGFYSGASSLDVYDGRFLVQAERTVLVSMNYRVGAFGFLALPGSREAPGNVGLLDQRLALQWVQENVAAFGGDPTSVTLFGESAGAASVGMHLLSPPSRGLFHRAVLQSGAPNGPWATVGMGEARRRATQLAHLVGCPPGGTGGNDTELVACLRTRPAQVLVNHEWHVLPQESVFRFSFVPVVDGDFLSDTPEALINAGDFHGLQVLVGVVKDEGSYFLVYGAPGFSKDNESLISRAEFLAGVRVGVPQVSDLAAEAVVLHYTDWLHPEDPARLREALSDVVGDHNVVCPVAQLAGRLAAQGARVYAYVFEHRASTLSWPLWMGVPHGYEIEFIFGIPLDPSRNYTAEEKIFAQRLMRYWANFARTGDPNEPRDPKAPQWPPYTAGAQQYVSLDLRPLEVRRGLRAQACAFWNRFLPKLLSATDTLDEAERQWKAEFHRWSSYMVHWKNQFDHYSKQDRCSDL
Description: Inhibition of human erythrocyte AChE using acetylthiocholine iodide as substrate preincubated for 5 mins followed by substrate addition measured at 2 mins time interval by Ellman's method

HepG2 = assay: cells; format: ADME, cell-based; conditions: Homo sapiens, HepG2, 24 h
Description: Cytotoxicity against human HepG2 cells assessed as reduction in cell viability after 24 hrs by MTT assay

[3] = Solubility of the compound in PBS buffer; format: physicochemical
in vitro [4] = conditions: PAMPA
in vitro [5] = conditions: PAMPA; remark: listed apart in the source
[6] = molecular target: T3, Muscarinic acetylcholine receptor M1 (Homo sapiens) (UniProt P11229); assay: Positive allosteric modulation of human M1 mAChR expressed in CHO cells assessed as increase in oxotremorine M-stimulated calcium influx preincubated for 10 mins followed by oxotremorine M addition by Fluo-4 NW dye based fluorescence assay; format: functional, cell-based
T3 sequence (whole entry): T1 sequence (P11229 whole entry)

Acetylcholinesterase [7] = molecular target: T2, Acetylcholinesterase; assay: Mixed type inhibition of human erythrocyte AChE assessed as enzyme-inhibitor complex using varying levels of acetylthiocholine iodide as substrate preincubated for 5 mins followed by substrate addition by Lineweaver-Burk plot analysis
Acetylcholinesterase [8] = molecular target: T2, Acetylcholinesterase; assay: Mixed type inhibition of human erythrocyte AChE assessed as enzyme-substrate-inhibitor complex using varying levels of acetylthiocholine iodide as substrate preincubated for 5 mins followed by substrate addition by Lineweaver-Burk plot analysis

SMILES | IC50 [1] [µM] | IC50 (Cholinesterase) [µM] | IC50 (Acetylcholinesterase [2]) [µM] | IC50 (HepG2) [µM] | solubility [3] | Papp at 100 µM (in vitro [4]) [×10⁻⁶ cm/s] | Papp at 100 µM (in vitro [5]) [×10⁻⁶ cm/s] | Activity [6] | Ki (Acetylcholinesterase [7]) [µM] | Ki (Acetylcholinesterase [8]) [µM]
COc1ccc(Cn2cc(C(=O)NCCCCCCCCNc3c4c(nc5ccc(OC)cc35)CCCC4)c(=O)c3ccccc32)cc1 | 7.86 | 12.4 | 74.3 |  |  |  |  |  |  | 
COc1ccc(Cn2cc(C(=O)NCCCNc3c4c(nc5ccc(OC)cc35)CCCC4)c(=O)c3ccccc32)cc1 | 2.48 | 1.03 | 2.24 | 2.42 | Insoluble | 4.85 |  |  |  | 
Nc1c2c(nc3cc(Cl)ccc13)CCCC2 | 6.09 |  |  | 43.2 |  |  |  |  |  | 
CN(C)CCCN1c2ccccc2Sc2ccccc21 [PROMAZINE] |  |  |  |  |  | 6.6 | 9.4 |  |  | 
COc1ccc2nc3c(c(N)c2c1)CCCC3 | 3.71 |  |  | 44.4 |  |  |  |  |  | 
COc1ccc(Cn2cc(C(=O)NCCCCCCCNc3c4c(nc5cc(Cl)ccc35)CCCC4)c(=O)c3ccccc32)cc1 | 5.35 | 3.34 | 0.0517 | > 40 | Insoluble | 2.35 |  |  |  | 
COc1ccc(Cn2cc(C(=O)NCCCCCCCCNc3c4c(nc5ccccc35)CCCC4)c(=O)c3ccccc32)cc1 | 2.05 | 1.28 | 0.768 |  |  |  |  |  |  | 
COc1ccc(Cn2cc(C(=O)NCCCCNc3c4c(nc5ccccc35)CCCC4)c(=O)c3ccccc32)cc1 | 1.59 | 1.32 | 0.491 |  |  |  |  |  |  | 
COc1ccc(Cn2cc(C(=O)NCCNc3c4c(nc5cc(Cl)ccc35)CCCC4)c(=O)c3ccccc32)cc1 | 4.23 | 0.0833 | 0.0745 | 3.48 | Insoluble | 2.37 |  |  |  | 
COc1ccc(Cn2cc(C(=O)NCCCCCCCNc3c4c(nc5ccc(OC)cc35)CCCC4)c(=O)c3ccccc32)cc1 | 11.4 | 49.3 | 1.53 | 0.6 | Insoluble | 9.25 |  |  |  | 
COc1ccc(Cn2cc(C(=O)NCCCCCNc3c4c(nc5cc(Cl)ccc35)CCCC4)c(=O)c3ccccc32)cc1 | 3.27 | 7.74 | 0.18 |  |  |  |  |  |  | 
COc1ccc(Cn2cc(C(=O)NCCCCCCNc3c4c(nc5ccc(OC)cc35)CCCC4)c(=O)c3ccccc32)cc1 | 8.61 | 16.6 | 10 |  |  |  |  |  |  | 
COc1ccc(Cn2cc(C(=O)NCCCCNc3c4c(nc5cc(Cl)ccc35)CCCC4)c(=O)c3ccccc32)cc1 | 4.11 | 3.12 | 0.0896 |  |  |  |  |  |  | 
COc1ccc(Cn2cc(C(=O)NCCNc3c4c(nc5ccc(OC)cc35)CCCC4)c(=O)c3ccccc32)cc1 | 3.71 | 0.408 | 2.64 | 1.63 | Insoluble | 1.65 |  |  |  | 
COc1ccc(Cn2cc(C(=O)NCCNc3c4c(nc5ccccc35)CCCC4)c(=O)c3ccccc32)cc1 | 0.658 | 0.0589 | 0.187 | 1.44 | Insoluble | 1.8 |  |  |  | 
C[C@]12CC[C@H]3[C@@H](CCC4=CC(=O)CC[C@@]43C)[C@@H]1CC[C@@H]2O [TESTOSTERONE] |  |  |  |  |  | 8.5 | 11.6 |  |  | 
COc1ccc(Cn2cc(C(=O)NCCCCCCNc3c4c(nc5cc(Cl)ccc35)CCCC4)c(=O)c3ccccc32)cc1 | 2.78 | 13.4 | 0.0941 |  |  |  |  |  |  | 
COc1ccc(Cn2cc(C(=O)O)c(=O)c3ccccc32)cc1 |  | > 1000 | > 1000 |  |  |  |  | Active |  | 
COc1ccc(Cn2cc(C(=O)NCCCNc3c4c(nc5ccccc35)CCCC4)c(=O)c3ccccc32)cc1 | 0.455 | 0.674 | 0.129 | 2.17 | Insoluble | 2.6 |  |  |  | 
COc1ccc(Cn2cc(C(=O)NCCCCNc3c4c(nc5ccc(OC)cc35)CCCC4)c(=O)c3ccccc32)cc1 | 1.07 | 1.08 | 9.5 |  |  |  |  |  |  | 
COc1ccc(Cn2cc(C(=O)NCCCCCCCCNc3c4c(nc5cc(Cl)ccc35)CCCC4)c(=O)c3ccccc32)cc1 | 9.45 | 37.2 | 0.119 |  |  |  |  |  |  | 
COc1ccc(Cn2cc(C(=O)NCCCNc3c4c(nc5cc(Cl)ccc35)CCCC4)c(=O)c3ccccc32)cc1 | 4.01 | 3.72 | 0.0419 | 4.99 | Insoluble | 3.08 |  |  | 0.00328 | 0.00157
COc1ccc(Cn2cc(C(=O)NCCCCCNc3c4c(nc5ccccc35)CCCC4)c(=O)c3ccccc32)cc1 | 1.48 | 0.823 | 0.293 |  |  |  |  |  |  | 
CC(=O)[C@H]1CC[C@H]2[C@@H]3CCC4=CC(=O)CC[C@]4(C)[C@H]3CC[C@]12C [PROGESTERONE] |  |  |  |  |  | 8.6 | 10.8 |  |  | 
COc1ccc(Cn2cc(C(=O)NCCCCCNc3c4c(nc5ccc(OC)cc35)CCCC4)c(=O)c3ccccc32)cc1 | 1.37 | 6.16 | 8.02 |  |  |  |  |  |  | 
COc1ccc(Cn2cc(C(=O)NCCCCCCNc3c4c(nc5ccccc35)CCCC4)c(=O)c3ccccc32)cc1 | 1.49 | 0.28 | 0.194 | 2.72 | Insoluble | 2.28 |  |  |  | 
COc1ccc(Cn2cc(C(=O)NCCCCCCCNc3c4c(nc5ccccc35)CCCC4)c(=O)c3ccccc32)cc1 | 2.14 | 1.19 | 0.194 |  |  |  |  |  |  | 
